Patent US12404301B2, “Polypeptide having anti-aging activity, and application thereof” (NANJING ANJI BIOLOGICAL TECHNOLOGY CO., LTD., priority 2020, dated 2025)

Test system: Wild-type Caenorhabditis elegans
Experiment: Experiment on the lifespan of Caenorhabditis elegans
Type: in vivo
Details: for longest lifespan of the nematodes / Median survival time (time to half death) / day when death occurs compared with the control group / time to half death compared with the control group (significance) / longest lifespan, days longer than that of the control group / time to half death longer than in the control group: 10 nM; for Median survival time (time to half death): Kaplan-Meier, Median ± SE; for day when death occurs compared with the control group / time to half death compared with the control group (significance): in words; for longest lifespan, days longer than that of the control group / time to half death longer than in the control group: vs control group
Protocol: Synchronization of Caenorhabditis elegans: The NGM plate with a moderate nematode density was selected. The larvae at the L4 stage were picked with a pick needle for about 20 in total and transferred into the blank NGM plate. After they developed into adults and laid the first batch of eggs, all the adults were picked out. About 12 hours later, the eggs hatched into larvae, to obtain the synchronized larvae at the L1 stage. Preliminary preparation for the experiment on the lifespan of Caenorhabditis elegans: The NGM was washed with 1 mL of M9 buffer. The resulting buffer containing the larvae at the L1 stage was collected into an EP tube, placed in a chromatographic cabinet at 4° C. for 5 min, and centrifuged at 1500× g/4° C. for 3 min. The supernatant was removed. After 100 μL of buffer was resuspended, the nematodes were counted under a microscope, and the nematodes were diluted to a concentration of 30 worms/10 μL. 10 μL of diluted nematodes were added into the NGM plate inoculated with E. coli OP50, and the nematodes were counted under the microscope to ensure that there were about 30 nematodes. The NGM plate was placed in a constant temperature incubator to culture. Experiment on the lifespan of Caenorhabditis elegans: After the nematodes at the L1 stage developed to the L4 stage, 100 μL of 15.6 μg/mL 5-FUDR was added for inhibition of Caenorhabditis elegans from oviposition. After the nematodes developed to adults, the dosing started, and the nematodes were divided into a control group and a 10 nM dose group, which was recorded as day 1 of the lifespan experiment. After that, the dosing was carried out every day, the numbers of nematodes that survived, died, and unexpectedly died were observed and recorded every day, and the status of the nematodes was observed and recorded, until the last nematode died. […] The dead nematodes need to be picked out of the plate. The E. coli OP50 needs to be added in time when exhausted. Kaplan-Meier statistical analysis was carried out on the data, and the data results were expressed as Median±SE. Compared with the control group, *P<0.05 represents a significant difference, and **P<0.01 represents a very significant difference.

TTKFAA [WD3]
longest lifespan of the nematodes: 33 days | Median survival time (time to half death): 21.000 days | day when death occurs compared with the control group: no significant difference | time to half death compared with the control group (significance): does not have a significant difference | longest lifespan, days longer than that of the control group: 5 days | time to half death longer than in the control group: 1 days | Number of remaining nematodes (day 0, 10 nM): 28 | Number of remaining nematodes (day 1, 10 nM): 28 | Number of remaining nematodes (day 2, 10 nM): 28 | Number of remaining nematodes (day 3, 10 nM): 28 | Number of remaining nematodes (day 4, 10 nM): 28 | Number of remaining nematodes (day 5, 10 nM): 28 | Number of remaining nematodes (day 6, 10 nM): 28 | Number of remaining nematodes (day 7, 10 nM): 28 | Number of remaining nematodes (day 8, 10 nM): 28 | Number of remaining nematodes (day 9, 10 nM): 28 | Number of remaining nematodes (day 10, 10 nM): 28 | Number of remaining nematodes (day 11, 10 nM): 27 | Number of remaining nematodes (day 12, 10 nM): 27 | Number of remaining nematodes (day 13, 10 nM): 27 | Number of remaining nematodes (day 14, 10 nM): 22 | Number of remaining nematodes (day 15, 10 nM): 20 | Number of remaining nematodes (day 16, 10 nM): 20 | Number of remaining nematodes (day 17, 10 nM): 20 | Number of remaining nematodes (day 18, 10 nM): 20 | Number of remaining nematodes (day 19, 10 nM): 17 | Number of remaining nematodes (day 20, 10 nM): 15 | Number of remaining nematodes (day 21, 10 nM): 14 | Number of remaining nematodes (day 22, 10 nM): 11 | Number of remaining nematodes (day 23, 10 nM): 10 | Number of remaining nematodes (day 24, 10 nM): 9 | Number of remaining nematodes (day 25, 10 nM): 6 | Number of remaining nematodes (day 26, 10 nM): 6 | Number of remaining nematodes (day 27, 10 nM): 5 | Number of remaining nematodes (day 28, 10 nM): 4 | Number of remaining nematodes (day 29, 10 nM): 2 | Number of remaining nematodes (day 30, 10 nM): 1 | Number of remaining nematodes (day 31, 10 nM): 1 | Number of remaining nematodes (day 32, 10 nM): 1 | Number of remaining nematodes (day 33, 10 nM): 1 | Number of remaining nematodes (day 34, 10 nM): 0 | Number of remaining nematodes (day 35, 10 nM): 0 | Number of remaining nematodes (day 36, 10 nM): 0 | Number of remaining nematodes (day 37, 10 nM): 0 | Number of remaining nematodes (day 38, 10 nM): 0

PTTKFAA [WD2]
longest lifespan of the nematodes: 32 days | Median survival time (time to half death): 21.000 days | day when death occurs compared with the control group: no significant difference | time to half death compared with the control group (significance): does not have a significant difference | longest lifespan, days longer than that of the control group: 4 days | time to half death longer than in the control group: 1 days | Number of remaining nematodes (day 0, 10 nM): 26 | Number of remaining nematodes (day 1, 10 nM): 26 | Number of remaining nematodes (day 2, 10 nM): 26 | Number of remaining nematodes (day 3, 10 nM): 26 | Number of remaining nematodes (day 4, 10 nM): 26 | Number of remaining nematodes (day 5, 10 nM): 26 | Number of remaining nematodes (day 6, 10 nM): 26 | Number of remaining nematodes (day 7, 10 nM): 26 | Number of remaining nematodes (day 8, 10 nM): 26 | Number of remaining nematodes (day 9, 10 nM): 26 | Number of remaining nematodes (day 10, 10 nM): 26 | Number of remaining nematodes (day 11, 10 nM): 25 | Number of remaining nematodes (day 12, 10 nM): 23 | Number of remaining nematodes (day 13, 10 nM): 23 | Number of remaining nematodes (day 14, 10 nM): 22 | Number of remaining nematodes (day 15, 10 nM): 21 | Number of remaining nematodes (day 16, 10 nM): 21 | Number of remaining nematodes (day 17, 10 nM): 20 | Number of remaining nematodes (day 18, 10 nM): 18 | Number of remaining nematodes (day 19, 10 nM): 16 | Number of remaining nematodes (day 20, 10 nM): 14 | Number of remaining nematodes (day 21, 10 nM): 13 | Number of remaining nematodes (day 22, 10 nM): 11 | Number of remaining nematodes (day 23, 10 nM): 9 | Number of remaining nematodes (day 24, 10 nM): 9 | Number of remaining nematodes (day 25, 10 nM): 7 | Number of remaining nematodes (day 26, 10 nM): 7 | Number of remaining nematodes (day 27, 10 nM): 5 | Number of remaining nematodes (day 28, 10 nM): 3 | Number of remaining nematodes (day 29, 10 nM): 2 | Number of remaining nematodes (day 30, 10 nM): 1 | Number of remaining nematodes (day 31, 10 nM): 1 | Number of remaining nematodes (day 32, 10 nM): 1 | Number of remaining nematodes (day 33, 10 nM): 0 | Number of remaining nematodes (day 34, 10 nM): 0 | Number of remaining nematodes (day 35, 10 nM): 0 | Number of remaining nematodes (day 36, 10 nM): 0 | Number of remaining nematodes (day 37, 10 nM): 0 | Number of remaining nematodes (day 38, 10 nM): 0

PPTTKFAA [WD1]
longest lifespan of the nematodes: 31 days | Median survival time (time to half death): 21.000 days | day when death occurs compared with the control group: no significant difference | time to half death compared with the control group (significance): does not have a significant difference | longest lifespan, days longer than that of the control group: 3 days | time to half death longer than in the control group: 1 days | Number of remaining nematodes (day 0, 10 nM): 29 | Number of remaining nematodes (day 1, 10 nM): 29 | Number of remaining nematodes (day 2, 10 nM): 29 | Number of remaining nematodes (day 3, 10 nM): 29 | Number of remaining nematodes (day 4, 10 nM): 29 | Number of remaining nematodes (day 5, 10 nM): 29 | Number of remaining nematodes (day 6, 10 nM): 29 | Number of remaining nematodes (day 7, 10 nM): 29 | Number of remaining nematodes (day 8, 10 nM): 29 | Number of remaining nematodes (day 9, 10 nM): 29 | Number of remaining nematodes (day 10, 10 nM): 28 | Number of remaining nematodes (day 11, 10 nM): 27 | Number of remaining nematodes (day 12, 10 nM): 24 | Number of remaining nematodes (day 13, 10 nM): 24 | Number of remaining nematodes (day 14, 10 nM): 22 | Number of remaining nematodes (day 15, 10 nM): 20 | Number of remaining nematodes (day 16, 10 nM): 20 | Number of remaining nematodes (day 17, 10 nM): 19 | Number of remaining nematodes (day 18, 10 nM): 19 | Number of remaining nematodes (day 19, 10 nM): 16 | Number of remaining nematodes (day 20, 10 nM): 15 | Number of remaining nematodes (day 21, 10 nM): 14 | Number of remaining nematodes (day 22, 10 nM): 12 | Number of remaining nematodes (day 23, 10 nM): 10 | Number of remaining nematodes (day 24, 10 nM): 9 | Number of remaining nematodes (day 25, 10 nM): 8 | Number of remaining nematodes (day 26, 10 nM): 6 | Number of remaining nematodes (day 27, 10 nM): 5 | Number of remaining nematodes (day 28, 10 nM): 4 | Number of remaining nematodes (day 29, 10 nM): 1 | Number of remaining nematodes (day 30, 10 nM): 1 | Number of remaining nematodes (day 31, 10 nM): 1 | Number of remaining nematodes (day 32, 10 nM): 0 | Number of remaining nematodes (day 33, 10 nM): 0 | Number of remaining nematodes (day 34, 10 nM): 0 | Number of remaining nematodes (day 35, 10 nM): 0 | Number of remaining nematodes (day 36, 10 nM): 0 | Number of remaining nematodes (day 37, 10 nM): 0 | Number of remaining nematodes (day 38, 10 nM): 0
